Measured values reported in the supplement of paper PMC4862054.

What was measured:
Assay in all cases: normalised viability (% of control), CellTiter-Blue; higher = more viable cells (about 100 = DMSO control)
Conditions in all cases: incubation time: 72 h
DU-4475 [1] = tested on: DU-4475
Protocol: (§1)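 DSRT, CellTiter-Blue viability, 72 h incubation. Signal is normalised to DMSO and benzethonium chloride controls. Value is the normalised response at dose 9.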

CAL-85-1 [2] = tested on: CAL-85-1
Protocol: as §1

CAL-51 [3] = tested on: CAL-51
Protocol: as §1

HDQ-P1 [4] = tested on: HDQ-P1
Protocol: as §1

MDA-MB-453 [5] = tested on: MDA-MB-453
Protocol: as §1

CAL-148 [6] = tested on: CAL-148
Protocol: as §1

DU-4475 [7] = tested on: DU-4475; remark: listed apart in the source
Protocol: (§2)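 DSRT, CellTiter-Blue viability, 72 h incubation. Signal is normalised to DMSO and benzethonium chloride controls. Value is the normalised response at dose 8.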

CAL-85-1 [8] = tested on: CAL-85-1; remark: listed apart in the source
Protocol: as §2

CAL-51 [9] = tested on: CAL-51; remark: listed apart in the source
Protocol: as §2

HDQ-P1 [10] = tested on: HDQ-P1; remark: listed apart in the source
Protocol: as §2

MDA-MB-453 [11] = tested on: MDA-MB-453; remark: listed apart in the source
Protocol: as §2

CAL-148 [12] = tested on: CAL-148; remark: listed apart in the source
Protocol: as §2

SMILES | normalised viability (DU-4475 [1]) [%] | normalised viability (CAL-85-1 [2]) [%] | normalised viability (CAL-51 [3]) [%] | normalised viability (HDQ-P1 [4]) [%] | normalised viability (MDA-MB-453 [5]) [%] | normalised viability (CAL-148 [6]) [%] | normalised viability (DU-4475 [7]) [%] | normalised viability (CAL-85-1 [8]) [%] | normalised viability (CAL-51 [9]) [%] | normalised viability (HDQ-P1 [10]) [%] | normalised viability (MDA-MB-453 [11]) [%] | normalised viability (CAL-148 [12]) [%]
COC(=O)c1ccc2c(c1)NC(=O)/C2=C(\Nc1ccc(N(C)C(=O)CN2CCN(C)CC2)cc1)c1ccccc1 [BIBF 1120] (10000 nM) | 24.8 | 53.9 | 42.3 | 56.6 | 2.37 | 70.5 |  |  |  |  |  | 
CO[C@H]1C[C@@H]2CC[C@@H](C)[C@@](O)(O2)C(=O)C(=O)N2CCCC[C@H]2C(=O)O[C@H]([C@H](C)C[C@@H]2CC[C@@H](OP(C)(C)=O)[C@H](OC)C2)CC(=O)[C@H](C)/C=C(\C)[C@@H](O)[C@@H](OC)C(=O)[C@H](C)C[C@H](C)/C=C/C=C/C=C/1C [Ridaforolimus] (1000 nM) | 6.1 | 50.6 | 31.3 | 81.7 | 21.4 | 35.4 |  |  |  |  |  | 
COc1cc(OC2CCN(C)CC2)ccc1Nc1ncc2c(n1)n(C1CCCC1)c(=O)n2C [AZ 3146] (3000 nM) |  |  |  |  |  |  | 89 | 84.5 | 28 | 72.4 | 69.6 | 43.5
N#Cc1ccc(COC[C@H]2O[C@@H](n3c(NCc4ccc(Cl)c(Cl)c4)nc4c(N)ncnc43)[C@H](O)[C@@H]2O)cc1 (3000 nM) |  |  |  |  |  |  | 82.7 | 93 | 99.3 | 89.5 | 96 | 87.7
O=P1(N(CCCl)CCCl)NCCCO1 (configuration not stated) [Cyclophosphamide] (12000 nM) |  |  |  |  |  |  | 104 | 93.7 | 105 | 110 | 109 | 97.2
O=C(Nc1ccncc1)C(=O)c1cn(Cc2ccc(Cl)cc2)c2ccccc12 [Indibulin] (3000 nM) |  |  |  |  |  |  | 22.6 | 39.7 | 25.5 | 54.7 | 39.5 | 83.8
Nc1cc(C(F)(F)F)c(-c2cc(N3CCOCC3)nc(N3CCOCC3)n2)cn1 [BKM-120] (10000 nM) | 12.7 | 20.1 | 4.15 | 12.4 | 6.1 | 6.46 |  |  |  |  |  | 
O=C(Nc1cccnc1)N1CCC(Cc2cccc(Oc3ccc(C(F)(F)F)cn3)c2)CC1 [PF-3845] (3000 nM) |  |  |  |  |  |  | 93.9 | 93.9 | 93.2 | 122 | 62.1 | 97.9
S=P(N1CC1)(N1CC1)N1CC1 [Thio-TEPA] (100000 nM) | 102 | 101 | 99.7 | 91.3 | 104 | 111 |  |  |  |  |  | 
NC(=O)c1ccc(I)c([N+](=O)[O-])c1 [Iniparib] (3000 nM) |  |  |  |  |  |  | 88.1 | 84.5 | 93.8 | 93.9 | 85.1 | 97
c1ccc2c(CCNc3ccc(Nc4ccncc4)cc3)c[nH]c2c1 [Serdemetan] (3000 nM) |  |  |  |  |  |  | 79.5 | 67.1 | 88.5 | 89 | 66.8 | 67
Nc1cc(C(F)(F)F)c(-c2cc(N3CCOCC3)nc(N3CCOCC3)n2)cn1 [BKM-120] (3000 nM) |  |  |  |  |  |  | 38 | 27.3 | 10.4 | 27.7 | 11.9 | 18.8
Cc1cc(Nc2cc(CN3CCOCC3)c3nc(C)c(Cc4ccc(Cl)cc4F)n3n2)n[nH]1 (3000 nM) |  |  |  |  |  |  | 52.4 | 59.4 | 38.2 | 35.5 | 60.7 | 76.1
Cc1[nH]c2ccccc2c1CCNCc1ccc(/C=C/C(=O)NO)cc1 [Panobinostat] (300 nM) |  |  |  |  |  |  | 6.86 | 7.2 | 5.46 | 23.1 | 1.93 | 1.12
Oc1ccc2c(c1)CC[C@H](c1ccccc1)[C@@H]2c1ccc(OCCN2CCCC2)cc1 [Lasofoxifene] (300 nM) |  |  |  |  |  |  | 96.4 | 96.8 | 109 | 102 | 104 | 98.2
COC(=O)c1ccc2c(c1)NC(=O)/C2=C(\Nc1ccc(N(C)C(=O)CN2CCN(C)CC2)cc1)c1ccccc1 [BIBF 1120] (3000 nM) |  |  |  |  |  |  | 97.1 | 91.1 | 62.7 | 91 | 59.8 | 94.8
COc1cc2/c(=N/c3ccc(Br)cc3F)nc[nH]c2cc1OCC1CCN(C)CC1 [Vandetanib] (10000 nM) | 111 | 17.3 | 15.3 | 8.94 | 17.4 | 59.6 |  |  |  |  |  | 
CC(C)C[C@@H](C(=O)N[C@H](C(=O)OC1CCCC1)c1ccccc1)[C@H](O)C(=O)NO [Tosedostat] (3000 nM) |  |  |  |  |  |  | 48.1 | 61.1 | 75.3 | 72.9 | 49.8 | 56.5
Cc1cc(Nc2cc(CN3CCOCC3)c3nc(C)c(Cc4ccc(Cl)cc4F)n3n2)n[nH]1 (10000 nM) | 36.9 | 33.1 | 12.5 | 15 | 36 | 62.4 |  |  |  |  |  | 
COc1cc2/c(=N/c3ccc(Br)cc3F)nc[nH]c2cc1OCC1CCN(C)CC1 [Vandetanib] (3000 nM) |  |  |  |  |  |  | 125 | 50.5 | 49.2 | 27.5 | 72.3 | 77
O=C(/C=C/c1cccc(S(=O)(=O)Nc2ccccc2)c1)NO [Belinostat] (3000 nM) |  |  |  |  |  |  | 1.84 | 16.4 | 9.77 | 39.1 | 2.18 | 3.16
C=C1C[C@@H]2[C@H](CC[C@]3(C)C(=O)CC[C@@H]23)[C@@]2(C)C=CC(=O)C=C12 [Exemestane] (3000 nM) |  |  |  |  |  |  | 106 | 90.7 | 110 | 92.4 | 79 | 104
